Reference: patent US20160220710A1, “COMPOSITIONS AND METHODS FOR DELIVERING PHARMACEUTICAL AGENTS” (THE REGENTS OF THE UNIVERSITY OF MICHIGAN, priority 2015, published 2016)
Where two headings read alike, the source gives them in different places.

Legend:
[1] = test system: F4/80(+) peritoneal macrophages (PMΦ); test: Flow cytometry of peritoneal exudate of CFZ-treated mice; format: in vivo
Source text: Mice (4 week old, male C57Bl6) were purchased from the Jackson Laboratory (Bar Harbor, Me.) and acclimatized for 1 week in a specific-pathogen-free animal facility. Animal care was provided by the University of Michigan's Unit for Laboratory Animal Medicine (ULAM) and the experimental protocol was approved by the Committee on Use and Care of Animals in accordance with NIH guidelines. An oral diet containing CFZ was fed to mice as previously described (Baik J, et al., Antimicrob. Agents Chemother. 2013; 57:1218-30; Baik J, et al., PLoS One 2012; 7:e47494; Keswani R K, et al., Mol. Pharm. 2015:10). CFZ (C8895; Sigma-Aldrich, St. Louis, Mo., USA) was dissolved in sesame oil (Roland, China, or Shirakiku, Japan) to achieve a concentration of 3 mg/ml, which was mixed with Powdered Lab Diet 5001 (PMI International, Inc., St. Louis, Mo., USA) to produce a 0.03% drug to powdered feed mix. A corresponding amount of sesame oil was mixed with chow for vehicle treatment (control mice). On average, food consumption for a 25 g mouse was 3 g per day, resulting in 10 mg of bioavailable drug/kg per day. For CFZ treatment, the drug diet was administered for 8 weeks followed by regular chow for 8 weeks (washout phase).
Peritoneal lavage was done as previously reported before and after the initiation of CFZ or vehicle treatment (1 week, 2 weeks, 4 weeks, 8 weeks and 16 weeks (8 weeks drug feed+8 weeks washout phase)) (16). Mice were euthanized as described above followed by sterilization of the outer skin with 70% ethanol. A small incision was made along the midline of the abdomen followed by abdominal skin retraction up to the thoracic boundary and the animal extremities to expose the intact peritoneal wall. A smaller incision was then made on the peritoneal wall to expose the cavity. The entire peritoneal cavity was washed with ice-cold sterile PBS+5% FBS (5-10 ml) and collected as peritoneal exudate. The exudate was then centrifuged (100×g for 5 min, 4° C.) and resuspended in 1.5 ml of PBS+5% FBS. Cells were counted using a hemocytometer for viable cells using Trypan Blue and for CLDI-containing cells.
Peritoneal and alveolar lavage was performed as stated before to obtain the respective exudates. Purified Fc block CD16/32 (1 μl) was added for every 100,000 cells for analysis. For CLDI fluorescence signal experiments, cells were pelleted by centrifugation (100×g for 5 min) followed by resuspension in PBS+5% FBS (500 μl). For functional assays, antibodies—anti-F4/80-eFluor 450 (48-4801, Affymetrix eBioscience, San Diego, Calif., USA), anti-CD86-FITC (553691, BD Biosciences, San Jose, Calif., USA), anti-CD206-FITC (141704, BioLegend®, San Diego, Calif., USA), anti-CD11c-eFluor450 (48-0114, Affymetrix eBioscience) and anti-Ly6G-eFluor450 (48-5931, Affymetrix eBioscience) were added to the cell suspension at a loading of 1 μg/100,000 cells (1:10 volumetric ratio) and incubated in the dark (30 min, 4° C.). Following incubation, the samples were diluted with PBS and pelleted by centrifugation (100×g, 5 min). The supernatant was discarded and the pellet was re-suspended in 300 μl of PBS+2% FBS. Just prior to analysis, PI (5 μl per 1×10^6 cells) was added to the cells to assess viability. Sample measurements were done on a MoFlo® Astrios™ EQ. All gating and analysis was done on at least 10,000 live cells (PI(−) cell population) using FlowJo. CLDI(+) cells were gated either using 640 671/30 or 640 795/70. […] These cells also had extremely high side-scatter that were measured as saturated signals. This small sub-population of cells were not considered for evaluation of change of CD206 expression in the peritoneal macrophages.

RAW 264.7 cells = test: Cell viability assay (XTT assay); format: cell-based, murine; settings: 24 h
Experimental: Cells were plated in triplicate wells at a density of 5×10^3 per well in 96-well plates in DMEM with 5% FBS and allowed to adhere overnight. Soluble CFZ (Stock solution 5 mM in DMSO) or CLDIs were added (0.25, 0.5, 1, 2, 4, 10, 20, 40 and 80 μM final concentrations) to cells and incubated (37° C.) for 24 h. XTT assay (Roche, UK) was carried out according to the manufacturer's instructions with absorbance measured at 450 nm and 690 nm using a Synergy-2 plate reader (Biotek). The cell viability percentage was calculated by comparing absorbance of CFZ and CLDI-treated cells to control (untreated) cells.

[2] = test system: caspase 1, IL-1β, TNFα, IL-1RA; test: Inflammasome proteins and cytokines in organs of CFZ-treated mice; format: in vivo
Experimental: Clofazimine (CFZ, Sigma-Aldrich, C8895) was prepared in sesame oil (Shirakiku, Japan, or Roland, China) and Powdered Lab Diet 5001 (PMI International, Inc., St. […] Baik et al., 2011, supra). Control mice were fed with the same diet without CFZ. The animal protocol was approved by the University of Michigan's Animal Care and Use Committee in accordance with the National Institutes of Health guidelines (UCUCA #PRO0005111). Mouse Bronchoalveolar Lavage (BAL) Harvest and Isolation of Alveolar Macrophages, Immunohistochemistry and Imaging, SDS-PAGE and Western Blot, Cytokine Measurements

[3] = cited from earlier work
[4] = 2 weeks of oral drug administration

Structure (SMILES): CC(C)/N=c1\cc2n(-c3ccc(Cl)cc3)c3ccccc3nc-2cc1Nc1ccc(Cl)cc1 [CFZ, 3-(p-chloroanilino)-10-(p-chlorophenyl)-2, 10-dihydro-2-isopropyliminophenazine]
- % CLDI(+) cells identified as F4/80(+) CD86(+) ([1]; 4 weeks post-drug feeding): ~38%
- % CLDI(+) cells identified as F4/80(+) CD206(+) ([1]; 4 weeks post-drug feeding): ~20%
- ratiometric CD86 median surface expression in CLDI(+) relative to CLDI(−) ([1]; 4 weeks post-drug feeding): ~1.17
- % of F4/80(+) PMΦ that were CLDI(+) ([1]; 8 weeks of washout): ~25%
- ratiometric CD86 median surface expression in CLDI(+) relative to CLDI(−) ([1]; 8 weeks post-drug feeding): 0.95
- % CLDI(+) cells identified as F4/80(+) CD86(+) ([1]; 8 weeks+8 weeks washout): ~70%
- % CLDI(+) cells identified as F4/80(+) CD206(+) ([1]; 8 weeks+8 weeks washout): ~81%
- CLDI accumulation within F4/80(+) CD86(+) cells ([1]; 8 weeks+8 weeks washout): ~95%
- CLDI(+)% as a proportion of F4/80(+) CD206(+) cells ([1]; 8 weeks+8 weeks washout): ~93%
- % of F4/80(+) PMΦ that were CLDI(+) ([1]; after 4 weeks of CFZ treatment): ~38%
- CLDI accumulation within F4/80(+) CD86(+) cells ([1]; after 4 weeks of CFZ treatment): ~31%
- CLDI(+)% as a proportion of F4/80(+) CD206(+) cells ([1]; after 4 weeks of CFZ treatment): ~15%
- % of F4/80(+) PMΦ that were CLDI(+) ([1]; after 8 weeks of treatment): ~61%
- % of total CLDI(+) cells localized to F4/80(+) peritoneal macrophages ([1]; all measured time points): > 85%
- cell viability (RAW 264.7 cells; 2 μM): 61%
- cell viability (RAW 264.7 cells; 10 μM): 20%
- TNFα expression in organs ([2]; 2 and 8 weeks, except liver at 2 weeks): unchanged by CFZ at both 2 and 8 weeks
- cleavage of hepatic caspase 1 and IL-1β ([2]; 2 weeks of CFZ): only moderate cleavage of hepatic caspase 1 and IL-1β
- IL-1RA in the liver [2, 4]: did not cause significant IL-1RA change in the liver
- spleen and lung IL-1RA levels [2, 4]: slightly increased
- IL-1RA levels in the kidney ([2]; 8 weeks): unchanged
- hepatic caspase 1 cleavage and IL-1β maturation ([2]; 8 weeks of CFZ): significantly reduced
- IL-1RA expression in liver, spleen and lung ([2]; 8 weeks of oral administration): major upregulation of IL-1RA expression
- IL-1β levels in the spleen, lung and kidney ([2]; mouse, in vivo): did not change
- half-life ([3]; after an acute dose, oral): in the order of hours to days
- half-life ([3]; upon prolonged oral administration): in the order of weeks to months
